Experimental data from patent publication US6806257B1, “Flavones as inducible nitric oxide synthase inhibitors, cyclooxygenase-2 inhibitors and potassium channel activators” (priority 1999, dated 2004).
“Also recorded” adds a separate entry of the source. Like-named read-outs stand apart in the source and are kept apart here.

What was measured:
COX-2 [1] = assay: COX-2 enzyme activity: PGE2 from added arachidonic acid in LPS-treated RAW 264.7 cells; assay type: cell-based, mouse; details: for PGE2: then arachidonic acid (100 μM) 15 min; for PGE2 production using added arachidonic acid as a substrate: added after COX-2 induction by LPS
[2] = system: porcine cerebral arteries; assay: In vitro tissue bath vasorelaxation of precontracted porcine cerebral arteries; details: for relaxation of cerebral arteries: concentrations as high as 100 μM, n=4
NF-kB (p65) / IkB = assay: Nuclear p65 / cytosolic IkB western blot in LPS-treated RAW264.7 macrophages; assay type: cell-based, mouse; details: 20 μg/ml, 100 ng/ml LPS for 30 minutes
Experimental: (§1) Western blots. Total cellular extract, cytosolic fractions (for IkB) and nuclear fraction (for p65 antibody) were prepared according to Muller et al., Immunobiology, 187, 233-256, 1993 and separated on sodium dodecyl sulfatepolyacrylamide minigels (8% for iNOS or COX-2, and 10% for IkB or p65) and transferred to immobilon polyvinylidene difluoride membranes (Millipore, Bedford, Mass.). The membrane was incubated overnight at 4° C. with 1% bovine serum albumin and then incubated with anti-iNos, COX-2, α-Tubulin monoclonal antibodies (Transduction Laboratories, Lexington, Ky.), anti-IkB or anti-p65 polyclonal antibodies (Santa Cruz Biochemicals, Santa Cruz, Calif.). iNOS, IkB, p65, Cox-2, α-Tubulin were detected by NBT and BCIP staining (Sigma Chemical Co., St. Louis, Mo.).
NF-kB is a transcription factor that is activated in response to stimulation by LPS, and activation of NF-kB is an essential factor in inducing iNOS gene expression in macrophages (Kim, Y. M., Biochem. Biophys. Res. Commun. 236, 655-660, 1997). To assess the effect of these compounds (20 μg/ml) on early stage of iNOS gene expression, the activation of NF-kB in RAW264.7 macrophages was examined using the electrophoretic mobility shift assay (EMSA) (FIGS. 6i and 6ii).

[3] = system: LPS-induced NO production in RAW264.7 macrophages; assay: LPS-induced nitrite (NO) production in RAW264.7 macrophages, Griess reaction; assay type: cell-based, mouse; details: for NO: 24 hours; for IC50: Mus musculus, RAW264.7, together with LPS (100 μg/mL) for 24 hours, n=3, read-out: IC50 in inhibiting LPS-induced NO production; for LPS-induced nitrite production: different concentrations together with LPS for 24 hours
Experimental: (§2) Cells. RAW264.7, a mouse macrophage cell line, was obtained from American Type Culture Collection. Cells were cultured in RPMI-1640 medium (available from Gibco Life Technology, in Gaithersburg, Md.) supplemented with 2 mM L-glutamine, antibiotics (100 units/ml penicillin-A and 100 units/ml streptomycin) and 10% heat-inactivated fetal bovine serum (Gibco/BRL) and maintained at 37° C in a humidified incubator containing 5% CO2.
Nitrite assay. The nitrite concentration in the medium was measured as an indicator of NO production according to the Griess reaction (Kim et al., J. Immunol. 153: 4741-4748). One hundred microliters of each supernatant was. mixed with the same volume of Griess reagent (1% sulfanilamide in 5% phosphoric acid and 0. 1% naphthylethylenediamine dihydrochloride in water); absorbency of the mixture at 550 nm was determined with an enzyme-linked immunosorbent assay plate reader (Dynatech MR-7000; Dynatech Labs, Chantilly, Va.).
The effects of flavonoids, ellagitannins, anthraquinones on LPS-induced NO production in macrophages were studied as follows. The chemical structures of two flavonoids (myricitrin, N1; oroxylin A, N2) four ellagitannins (penta-O-galloyl-β-glucopyranose, N3; woodfordin C, N4; onothein B, N5; cuphiin, N6), and two anthraquinones (emodin, N7; physcion, N8) that were used in the present study were shown in FIG. 1. The effects of these eight compounds on NO production in RAW264.7 macrophages were investigated. The accumulated nitrite in the culture medium was used as an index for NO synthesis from these cells. […]

iNOS [4] = assay: LPS-induced iNOS expression in RAW264.7 macrophages (western/northern blot); assay type: cell-based, mouse; details: NLA (or L-NAME) plus LPS co-treated
Experimental: as §2, §1
Northern blot analysis. Total RNA (20 μg/lane) were separated by electrophoresis on 1.2% agarose gel containing 6.7% formaldehyde and transformed to a Hybond-N nylon membrane (American Life Science) in 20×standard saline citrate (3 M sodium chloride and 0.3 M sodium citrate, pH 7.0). After heating at 80° C. for 2 hours and prehybridization for 4 hours, the filters were hybridized with ^32P-labeled murine iNOS cDNA probes at a concentration of 3×10^6 cpm/ml for 16-18 hours at 42° C. The probe was labeled with [α-32P] dCTP by using Random Primer labeling kit (Stratagene, La Jolla, Calif.). Then, the filters were washed, dried and autoradiographed with Kodak-X-Omat XAR-film using intensifying screens at −80° C.

COX-2 [5] = assay: LPS-induced COX-2 expression in RAW264.7 macrophages (western/northern blot); assay type: cell-based, mouse; details: for LPS-induced COX-2 protein: 20, 40 μM with LPS (100 ng/mL) for 24 hours; for basal COX-2 expression, compound alone: no LPS
Experimental: as §2, §1

iNOS [6] = assay: Indirect iNOS enzyme assay: NO in medium of LPS-pretreated intact RAW 264.7 cells; assay type: cell-based, mouse; details: for iNOS enzyme activity in intact cells by nitrite production in the medium: added to cells pre-treated with LPS
iNOS [7] = assay: Direct iNOS enzyme activity assay in RAW 264.7 cell lysates; assay type: biochemical, mouse; details: for NO production by direct enzyme activity assay, compound added to lysate (Table 3): lysates of LPS-treated cells
[8] = system: LPS-induced PGE2 production in RAW 264.7 macrophages; assay: LPS-induced PGE2 production in RAW 264.7 macrophages (co-treatment); assay type: cell-based, mouse; details: for PGE2: 24 hours
Experimental: Un-stimulated RAW 264.7 macrophages in culture medium for 24 hours produced basal amount of PGE2 (1.5 ng/mL) in the medium.

[9] = 20 μM for 30 min after LPS 6 hours
[10] = arteries without endothelial cells, U-46619
[11] = LPS + L-NAME (2 mM) + compound 40 μM
[12] = LPS + NLA (2 mM) + compound 40 μM
[13] = 20 μM added for 12 hours after LPS (100 ng/ml) 12 hours pretreatment
[14] = 40 μM added for 12 hours after LPS (100 ng/ml) 12 hours pretreatment
[15] = 20 μM added to lysate of LPS (100 ng/mL, 12 hr)-treated cells
[16] = 40 μM added to lysate of LPS (100 ng/mL, 12 hr)-treated cells
[17] = lysates of LPS-pretreated cells incubated with 20 μM for 12 hours
[18] = lysates of LPS-pretreated cells incubated with 40 μM for 12 hours
[19] = 40 μM for 30 min after LPS 6 hours

Compound: COc1ccc2c(c1)c(CC(=O)O)c(C)n2C(=O)c1ccc(Cl)cc1 [indomethacin, reference compound]
- PGE2 (COX-2 [1]; [9]): 2.0 ± 0.7 ng/mL
- PGE2 production using added arachidonic acid as a substrate (COX-2 [1]): significantly inhibited

Compound: Nc1ccncc1 [4-aminopyridine, reference compound]
- effect of the blocker/inhibitor on oroxylin A-induced relaxation [2, 10]: significantly inhibited

Compound: cuphiin D1
- LPS-induced increase of nuclear p65 and decrease of cytosolic IkB (NF-kB (p65) / IkB): did not block

Compound: tetraethylammonium [TEA, reference compound]
- effect of the blocker on oroxylin A-induced relaxation [2]: significantly shifted the oroxylin A concentration response curves to the right; also recorded: almost abolished
- effect of the blocker/inhibitor on oroxylin A-induced relaxation [2]: concentration-dependently (1-10 mM) inhibited; also recorded: blocked

Compound: O=c1cc(-c2ccccc2)oc2cc(O)c(O)c(O)c12 [baicalein]
- NO [3, 11]: 7.9 ± 1.2 μmole/4 × 10^5
- NO [3, 12]: 8.3 ± 1.3 μmole/4 × 10^5
- IC50 [3]: 19.4 ± 1 µM
- LPS-induced nitrite production [3]: significant concentration-dependent inhibition
- increased expression of iNOS in NLA or L-NAME plus LPS treated cells (iNOS [4]): inhibited
- LPS-induced COX-2 protein (COX-2 [5]): did not inhibit
- basal COX-2 expression, compound alone (COX-2 [5]): did not affect
- NO in medium (iNOS [6]; [13]): 15.4 ± 0.3 μM/6 × 10^5 cells
- NO in medium (iNOS [6]; [14]): 13.1 ± 0.9 μM/6 × 10^5 cells
- iNOS enzyme activity in intact cells by nitrite production in the medium (iNOS [6]): did not affect
- direct effect on iNOS enzyme activity (iNOS [7]): did not directly affect
- iNOS specific activity: NO formation (iNOS [7]; [15]): 7.2 ± 0.1 μM/200 μg total protein
- iNOS specific activity: NO formation (iNOS [7]; [16]): 9.2 ± 1.8 μM/200 μg total protein
- iNOS specific activity: NO formation (iNOS [7]; [17]): 9.8 ± 2.3 μM/200 μg protein
- iNOS specific activity: NO formation (iNOS [7]; [18]): 8.1 ± 1.9 μM/200 μg protein
- NO production by direct enzyme activity assay, compound added to lysate (Table 3) (iNOS [7]): did not inhibit
- direct effect on COX-2 enzyme activity (COX-2 [1]): did not directly affect
- PGE2 (COX-2 [1]; [9]): 6.1 ± 0.2 ng/mL
- PGE2 (COX-2 [1]; [19]): 6.2 ± 0.5 ng/mL
- PGE2 production using added arachidonic acid as a substrate (COX-2 [1]): no decrease
- PGE2 [8, 11]: 6.2 ± 0.5 ng/mL
- PGE2 [8, 12]: 5.5 ± 0.8 ng/mL

Compound: O=C(O)[C@H]1O[C@@H](Oc2cc3oc(-c4ccccc4)cc(=O)c3c(O)c2O)[C@H](O)[C@@H](O)[C@@H]1O [baicalin]
- NO [3, 11]: 8.5 ± 0.9 μmole/4 × 10^5
- NO [3, 12]: 7.1 ± 0.3 μmole/4 × 10^5
- IC50 [3]: 15 ± 1.4 µM
- LPS-induced nitrite production [3]: significant concentration-dependent inhibition
- increased expression of iNOS in NLA or L-NAME plus LPS treated cells (iNOS [4]): inhibited
- LPS-induced COX-2 protein (COX-2 [5]): did not inhibit
- basal COX-2 expression, compound alone (COX-2 [5]): did not affect
- NO in medium (iNOS [6]; [13]): 14.5 ± 0.5 μM/6 × 10^5 cells
- NO in medium (iNOS [6]; [14]): 14.8 ± 1.5 μM/6 × 10^5 cells
- iNOS enzyme activity in intact cells by nitrite production in the medium (iNOS [6]): did not affect
- direct effect on iNOS enzyme activity (iNOS [7]): did not directly affect
- iNOS specific activity: NO formation (iNOS [7]; [15]): 8.7 ± 1.0 μM/200 μg total protein
- iNOS specific activity: NO formation (iNOS [7]; [16]): 9.0 ± 1.1 μM/200 μg total protein
- iNOS specific activity: NO formation (iNOS [7]; [17]): 8.7 ± 1.3 μM/200 μg protein
- iNOS specific activity: NO formation (iNOS [7]; [18]): 9.4 ± 2.1 μM/200 μg protein
- NO production by direct enzyme activity assay, compound added to lysate (Table 3) (iNOS [7]): did not inhibit
- direct effect on COX-2 enzyme activity (COX-2 [1]): did not directly affect
- PGE2 (COX-2 [1]; [9]): 6.1 ± 0.6 ng/mL
- PGE2 (COX-2 [1]; [19]): 5.9 ± 0.4 ng/mL
- PGE2 production using added arachidonic acid as a substrate (COX-2 [1]): no decrease
- PGE2 [8, 11]: 6.1 ± 0.3 ng/mL
- PGE2 [8, 12]: 5.8 ± 1.1 ng/mL

Compound: O=C(O[C@@H]1Cc2c(O)cc(O)cc2O[C@@H]1c1cc(O)c(O)c(O)c1)c1cc(O)c(O)c(O)c1 [epigallocatechin gallate, reference compound]
- relaxation of cerebral arteries [2]: very small relaxation or no response

Compound: COc1c(O)cc(O)c2c(=O)cc(-c3ccccc3)oc12 [wogonin, 5,7-dihydroxy-8-methoxy flavone]
- NO [3, 11]: 6.8 ± 0.5 μmole/4 × 10^5
- NO [3, 12]: 6.7 ± 0.7 μmole/4 × 10^5
- LPS-induced nitrite production [3]: significant concentration-dependent inhibition
- increased expression of iNOS in NLA or L-NAME plus LPS treated cells (iNOS [4]): inhibited
- NO in medium (iNOS [6]; [13]): 16.5 ± 0.3 μM/6 × 10^5 cells
- NO in medium (iNOS [6]; [14]): 16.3 ± 0.3 μM/6 × 10^5 cells
- PGE2 [8, 11]: 2.3 ± 0.7 ng/mL
- PGE2 [8, 12]: 2.1 ± 0.4 ng/mL
- LPS-induced PGE2 production ([8]; co-treatment 20 and 40 μM, LPS (100 ng/mL) 24 hours): inhibited

Compound: Cc1cnc(C(=O)NCCc2ccc(S(=O)(=O)NC(=O)NC3CCCCC3)cc2)cn1 [glipizide, reference compound]
- effect of the blocker/inhibitor on oroxylin A-induced relaxation [2, 10]: did not affect

Compound: C[C@@H]1C(=O)O[C@H]2C[C@@]34[C@H]5C[C@@H](C(C)(C)C)[C@]36[C@@H](OC(=O)[C@@H]6O)O[C@@]4(C(=O)O5)[C@]21O [ginkgolide A, reference compound]
- relaxation of cerebral arteries [2]: very small relaxation or no response

Compound: CC1C(=O)OC2C(O)C34C5CC(C(C)(C)C)C36C(OC(=O)C6O)OC4(C(=O)O5)C12O (centres unmarked) [ginkgolide B, reference compound]
- relaxation of cerebral arteries [2]: very small relaxation or no response

Compound: Iberiotoxin (QFTDVDCSVSKECWSVCKDLFGVDRGKCMGKKCRCYQ; UniProt P24663 1-37, looked up) [reference compound]
- effect of the blocker/inhibitor on oroxylin A-induced relaxation [2, 10]: slightly but significantly inhibited

Compound: oenothein B
- LPS-induced increase of nuclear p65 and decrease of cytosolic IkB (NF-kB (p65) / IkB): significantly inhibited
